Reference: US9445594B2, “Molecules having certain pesticidal utilities, intermediates, compositions, and processes, related thereto” (priority 2014, dated 2016)

Columns and labels:
Type in all cases: in vivo
[1] = system: Corn Earworm (Helicoverpa zea, HELIZE) ("CEW"); assay: Bioassays on CEW, 128-well diet tray assay; details: 168 h, second instar larvae, 50 μg/cm^2 on artificial diet, 25° C., five to seven days, average of eight wells, read-out: CEW % Control (or Mortality) rating
Procedure: Certain molecules disclosed in this document were tested against BAW, CEW, and CL using procedures described in the following examples. In the reporting of the results, the “BAW, CEW, & CL Rating Table” was used (See Table Section).
Bioassays on CEW were conducted using a 128-well diet tray assay. one to five second instar CEW larvae were placed in each well (3 mL) of the diet tray that had been previously filled with 1 mL of artificial diet to which 50 μg/cm^2 of the test compound (dissolved in 50 μL of 90:10 acetone-water mixture) had been applied (to each of eight wells) and then allowed to dry. Trays were covered with a clear self-adhesive cover, and held at 25° C., 14:10 light-dark for five to seven days. Percent mortality was recorded for the larvae in each well; activity in the eight wells was then averaged. The results are indicated in the table entitled “Table ABC: Biological Results” (See Table Section). Bioassays on CL

[2] = system: Green Peach Aphid (Myzus persicae, MYZUPE) ("GPA"); assay: Bioassays on GPA, foliar spray of infested cabbage seedlings; details: 72 h, 200 ppm spray on cabbage seedlings, graded after three days, Abbott corrected % control, read-out: GPA % Control (or Mortality) rating
Procedure: Certain molecules disclosed in this document were tested against GPA using procedures described in the following example. In the reporting of the results, the “GPA Rating Table” was used (See Table Section).
Cabbage seedlings grown in 3-inch pots, with 2-3 small (3-5 cm) true leaves, were used as test substrate. The seedlings were infested with 20-50 GPA (wingless adult and nymph stages) one day prior to chemical application. Four pots with individual seedlings were used for each treatment. Test compounds (2 mg) were dissolved in 2 mL of acetone/methanol (1:1) solvent, forming stock solutions of 1000 ppm test compound. The stock solutions were diluted 5× with 0.025% Tween 20 in water to obtain the solution at 200 ppm test compound. A hand-held aspirator-type sprayer was used for spraying a solution to both sides of […] leaves until runoff. Reference plants (solvent check) were sprayed with the diluent only containing 20% by volume of acetone/methanol (1:1) solvent. Treated plants were held in a holding room for three days at approximately 25° C. and ambient relative humidity (RH) prior to grading. Evaluation was conducted by counting the number of live aphids per plant under a microscope. Percent Control was measured by using Abbott's correction formula (W. S. Abbott, “A Method of Computing the Effectiveness of an Insecticide” J. Econ. Entomol. 18 (1925), pp. 265-267) as follows. Corrected % Control=100*(X−Y)/X • where • X=No. of live aphids on solvent check plants and • Y=No. of live aphids on treated plants

[3] = system: Beet Armyworm (Spodoptera exigua, LAPHEG) ("BAW"); assay: Bioassays on BAW, 128-well diet tray assay; details: 168 h, second instar larvae, 50 μg/cm^2 on artificial diet, 25° C., five to seven days, average of eight wells, read-out: BAW % Control (or Mortality) rating
How it was run: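 One to five second-instar larvae were placed per well on artificial diet surface-treated with 50 μg/cm^2 compound from 90:10 acetone-water, dried before infestation. Trays were held at 25 °C, 14:10 light-dark, for five to seven days. Percent mortality was averaged over eight wells.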

[4] = system: Yellow Fever Mosquito (Aedes aegypti, AEDSAE) ("YFM"); assay: Bioassays on YFM, 96-well plate larval assay; details: about 1 day-old larvae, from 4000 ppm DMSO master plate diluted, room temperature, scored after 3 days
How it was run: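 Compounds from 4000 ppm DMSO master plates, diluted in 90:10 water:acetone, dispensed into 96-well plates, six replicates. About 1-day-old larvae added in liver-powder water. Wells covered, held 3 days at room temperature, then scored for mortality.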

[5] = system: Cabbage Looper (Trichoplusia ni, TRIPNI) ("CL"); assay: Bioassays on CL, 128-well diet tray assay; details: 168 h, second instar larvae, 50 μg/cm^2 on artificial diet, 25° C., five to seven days, average of eight wells, read-out: CL % Control (or Mortality) rating
How it was run: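 Second-instar larvae (one to five per well) on artificial diet surface-treated with 50 μg/cm^2 compound in 90:10 acetone-water, eight wells per treatment. Held at 25° C., 14:10 light-dark for five to seven days. Percent mortality scored per well and averaged over the eight wells.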

Row | Compound | mortality at 50 µg/cm2 [1] | mortality at 200 ppm [2] | mortality at 50 µg/cm2 [3] | YFM % Control (or Mortality) rating [4] | mortality at 50 µg/cm2 [5]
1 | CCOC(=O)c1ccc(NC(=O)Nc2ccc(-c3ncn(-c4ccc(OC(F)(F)F)cc4)n3)cc2)c(C)n1 [F41, Ethyl 6-methyl-5-(3-(4-(1-(4-(trifluoromethoxy)phenyl)-1H-1,2,4-triazol-3-yl)phenyl)ureido)picolinate] | 0% | 0% | 0% | – | –
2 | COc1ccc(NC(=O)Nc2ccc(-c3ncn(-c4ccc(OC(F)(F)F)cc4)n3)cc2)cn1 [F10, 1-(6-Methoxypyridin-3-yl)-3-(4-(1-(4-(trifluoromethoxy)phenyl)-1H-1,2,4-triazol-3-yl)phenyl)urea] | 50 to 100% | 0 to 80% | 50 to 100% | – | –
3 | Cc1ccc(C)n1-c1ccccc1NC(=S)Nc1ccc(-c2ncn(-c3ccc(OC(F)(F)F)cc3)n2)cc1 [F75, 1-(2-(2,5-Dimethyl-1H-pyrrol-1-yl)phenyl)-3-(4-(1-(4-(trifluoromethoxy)phenyl)-1H-1,2,4-triazol-3-yl)phenyl)thiourea] | 50 to 100% | 0% | 50 to 100% | D (No activity noticed in this bioassay) | 50 to 100%
4 | COc1ccc(NC(=S)NCc2ccc(-c3ncn(-c4ccc(OC(F)(F)C(F)(F)F)cc4)n3)cc2)c(C)c1 [F111, 1-(4-methoxy-2-methylphenyl)-3-(4-(1-(4-(perfluoroethoxy)phenyl)-1H-1,2,4-triazol-3-yl)benzyl)thiourea] | 50 to 100% | 0% | 50 to 100% | A (80-100) | –
5 | CN(C)c1ccc(NC(=S)NCc2ccc(-c3ncn(-c4ccc(OC(F)(F)C(F)(F)F)cc4)n3)cc2)cc1 [F112, 1-(4-(Dimethylamino)phenyl)-3-(4-(1-(4-(perfluoroethoxy)phenyl)-1H-1,2,4-triazol-3-yl)benzyl)thiourea] | 0% | 0% | 0 to 50% | D (No activity noticed in this bioassay) | –
6 | CC(C)c1ccccc1NC(=S)Nc1ccc(-c2ncn(-c3ccc(C(F)(F)F)cc3)n2)cc1 [F53, 1-(2-isopropylphenyl)-3-(4-(1-(4-(trifluoromethyl)phenyl)-1H-1,2,4-triazol-3-yl)phenyl)thiourea] | 50 to 100% | 0 to 80% | 50 to 100% | A (80-100) | –
7 | CCOc1ccc(NC(=O)Nc2ccc(-c3ncn(-c4ccc(OC(F)(F)F)cc4)n3)cc2)cc1 [F2, 1-(4-ethoxyphenyl)-3-(4-(1-(4-(trifluoromethoxy)phenyl)-1H-1,2,4-triazol-3-yl)phenyl)urea] | 0% | 0% | 0% | – | –
8 | FC(F)(F)Oc1ccc(-n2cnc(-c3ccc(NC(=S)Nc4ccccc4Cc4ccccc4)cc3)n2)cc1 [F58, 1-(2-Benzylphenyl)-3-(4-(1-(4-(trifluoromethoxy)phenyl)-1H-1,2,4-triazol-3-yl)phenyl)thiourea] | 50 to 100% | – | 50 to 100% | D (No activity noticed in this bioassay) | 50 to 100%
9 | CCOc1ccc(NC(=O)Nc2ccc(-c3ncn(-c4ccc(OC(F)(F)F)cc4)n3)cc2)cn1 [F8, 1-(6-Ethoxypyridin-3-yl)-3-(4-(1-(4-(trifluoromethoxy)phenyl)-1H-1,2,4-triazol-3-yl)phenyl)urea] | 0% | 0% | 0% | – | –
10 | COc1ccc(NC(=S)NCc2ccc(-c3ncn(-c4ccc(OC(F)(F)C(F)(F)F)cc4)n3)cc2)cc1 [F110, 1-(4-methoxyphenyl)-3-(4-(1-(4-(perfluoroethoxy)phenyl)-1H-1,2,4-triazol-3-yl)benzyl)thiourea] | 0% | 0% | 50 to 100% | D (No activity noticed in this bioassay) | –
11 | Cc1nc(Cl)ccc1NC(=O)Nc1ccc(-c2ncn(-c3ccc(OC(F)(F)F)cc3)n2)cc1 [F36, 1-(6-Chloro-2-methylpyridin-3-yl)-3-(4-(1-(4-(trifluoromethoxy)phenyl)-1H-1,2,4-triazol-3-yl)phenyl)urea] | 50 to 100% | 0 to 80% | 50 to 100% | – | –
12 | CC(=O)N(C(=S)Nc1cccc(C)c1)c1ccc(-c2ncn(-c3ccc(OC(F)(F)F)cc3)n2)cc1 [F67, N-(m-tolylcarbamothioyl)-N-(4-(1-(4-(trifluoromethoxy)phenyl)-1H-1,2,4-triazol-3-yl)phenyl)acetamide] | 0% | 0% | 0 to 50% | D (No activity noticed in this bioassay) | –
13 | CC(C)n1cnnc1-c1ccccc1NC(=S)Nc1ccc(-c2ncn(-c3ccc(OC(F)(F)F)cc3)n2)cc1 [F48, 1-(2-(4-isopropyl-4H-1,2,4-triazol-3-yl)phenyl)-3-(4-(1-(4-(trifluoromethoxy)phenyl)-1H-1,2,4-triazol-3-yl)phenyl)thiourea] | 0 to 50% | – | 50 to 100% | A (80-100) | 50 to 100%
